Where “and” joins values, the source holds several entries; their conditions need not be identical. Equal entries are not always repeated. Inconclusive results and toxic doses are left out. The calls were made as follows: active = survival T/C of 150% or more; inactive = T/C below 125% in these data.
Tested on: P388 leukemia ip, CD2F1 mice, survival T/C
Assay: NCI In Vivo Anticancer Drug Screen. Data for tumor model P388 Leukemia (intraperitoneal) in CD2F1 (CDF1) mice
Conditions: endpoint: median survival time, higher = longer survival
Procedure, shortened: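 Mice carrying the transplanted tumor received test compound or vehicle. Survival was recorded in each group, and the value is the treated-group measurement divided by that of the vehicle-treated control group.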

[1] = dose: 50.0 mg/kg/injection, schedule: Q01DX005 (ip), vehicle: Klucel (hydroxypropylcellulose) (HPC)
[2] = dose: 100.0 mg/kg/injection, schedule: Q01DX005 (ip), vehicle: Klucel (hydroxypropylcellulose) (HPC)
[3] = dose: 200.0 mg/kg/injection, schedule: Q01DX005 (ip), vehicle: Klucel (hydroxypropylcellulose) (HPC)
[4] = dose: 50.0 mg/kg/injection, schedule: Q01DX009 (ip), vehicle: Klucel (hydroxypropylcellulose) (HPC)
[5] = dose: 100.0 mg/kg/injection, schedule: Q01DX009 (ip), vehicle: Klucel (hydroxypropylcellulose) (HPC)
[6] = dose: 100.0 mg/kg/injection, schedule: Q01DX001 (ip), vehicle: Klucel (hydroxypropylcellulose) (HPC)
[7] = dose: 200.0 mg/kg/injection, schedule: Q01DX001 (ip), vehicle: Klucel (hydroxypropylcellulose) (HPC)
[8] = dose: 50.0 mg/kg/injection, schedule: Q01DX009 (ip), vehicle: saline
[9] = dose: 100.0 mg/kg/injection, schedule: Q01DX009 (ip), vehicle: saline
[10] = dose: 60.0 mg/kg/injection, schedule: Q01DX005 (ip), vehicle: saline with Tween-80
[11] = dose: 50.0 mg/kg/injection, schedule: Q01DX005 (ip), vehicle: saline with Tween-80
[12] = dose: 100.0 mg/kg/injection, schedule: Q01DX005 (ip), vehicle: saline with Tween-80
[13] = dose: 200.0 mg/kg/injection, schedule: Q01DX005 (ip), vehicle: saline with Tween-80
[14] = dose: 25.0 mg/kg/injection, schedule: Q01DX009 (ip), vehicle: other
[15] = dose: 50.0 mg/kg/injection, schedule: Q01DX009 (ip), vehicle: other
[16] = dose: 100.0 mg/kg/injection, schedule: Q01DX009 (ip), vehicle: other
[17] = dose: 200.0 mg/kg/injection, schedule: Q01DX009 (ip), vehicle: other
[18] = dose: 400.0 mg/kg/injection, schedule: Q01DX009 (ip), vehicle: other

Measured: T/C

NC(=O)c1nnn2c1nc(N)c1cc(Cl)ccc12
inactive: [1] 100 % of control | [2] 104 % of control | [3] 99 % of control

CN1C(=O)C(=O)N(Cc2ccco2)C1=O
inactive: [4] 97 % of control | [5] 100 % of control | dose: 200.0 mg/kg/injection, schedule: Q01DX009 (ip), vehicle: Klucel (hydroxypropylcellulose) (HPC) 101 % of control

CC(C)(C)C#CP(=O)(C#CC(C)(C)C)C#CC(C)(C)C
inactive: dose: 50.0 mg/kg/injection, schedule: Q01DX001 (ip), vehicle: Klucel (hydroxypropylcellulose) (HPC) 97 % of control | [6] 99 % of control | [7] 95 % of control

COC(=O)CCCOCCCC(=O)OC
inactive: [8] 95 % of control | [9] 99 % of control

CCCC[As](CCCC)SCC1OC(OC(C)=O)C(OC(C)=O)C(OC(C)=O)C1OC(C)=O (stereo unspecified)
inactive: [4] 113 % of control | [5] 92 % of control

Cc1ccc2c(=O)c3ccccc3c3c2c1c1c(C)ccc2c(=O)c4ccccc4c3c21
inactive: [1] 108 % of control | [2] 102 % of control | [3] 107 % of control

CCCCCCCCCCCCOP(=O)(N1CC1(C)C)N1CC1(C)C (stereo unspecified)
inactive: dose: 2.0 mg/kg/injection, schedule: Q01DX009 (ip), vehicle: saline with Tween-80 108 % of control and 113 % of control | dose: 4.0 mg/kg/injection, schedule: Q01DX009 (ip), vehicle: saline with Tween-80 103 % of control and 108 % of control | dose: 8.0 mg/kg/injection, schedule: Q01DX009 (ip), vehicle: saline with Tween-80 114 % of control and 117 % of control | dose: 16.0 mg/kg/injection, schedule: Q01DX009 (ip), vehicle: saline with Tween-80 102 % of control and 117 % of control

O=C1CC2CCC(CN2C(=O)OCc2ccccc2)O1 (stereo unspecified)
inactive: dose: 60.0 mg/kg/injection, schedule: Q01DX005 (ip), vehicle: Klucel (hydroxypropylcellulose) (HPC) 102 % of control | dose: 120.0 mg/kg/injection, schedule: Q01DX005 (ip), vehicle: Klucel (hydroxypropylcellulose) (HPC) 99 % of control | dose: 240.0 mg/kg/injection, schedule: Q01DX005 (ip), vehicle: Klucel (hydroxypropylcellulose) (HPC) 100 % of control

COc1ccc(-c2c([O-])oc(-c3ccccc3)[n+]2C)cc1
inactive: [10] 98 % of control | dose: 120.0 mg/kg/injection, schedule: Q01DX005 (ip), vehicle: saline with Tween-80 96 % of control | dose: 240.0 mg/kg/injection, schedule: Q01DX005 (ip), vehicle: saline with Tween-80 98 % of control

ClC(Cl)(Cl)C(=NN=C(C(Cl)(Cl)Cl)C(Cl)(Cl)Cl)C(Cl)(Cl)Cl
inactive: dose: 15.0 mg/kg/injection, schedule: Q01DX005 (ip), vehicle: saline with Tween-80 106 % of control | dose: 30.0 mg/kg/injection, schedule: Q01DX005 (ip), vehicle: saline with Tween-80 103 % of control | [10] 100 % of control and 109 % of control

Cc1nn(-c2ccccn2)c2ncnc(N)c12
inactive: [11] 95 % of control | [12] 101 % of control | [13] 95 % of control

CCCc1[nH]n(-c2ccccc2)c(=O)c1N=Nc1ccc(Cl)cc1
inactive: [8] 96 % of control | [9] 100 % of control | dose: 200.0 mg/kg/injection, schedule: Q01DX009 (ip), vehicle: saline 101 % of control

CCOC(=O)C(CN1C(=O)c2ccccc2C1=O)(NC(C)=O)C(=O)OCC
inactive: [14] 103 % of control | [15] 106 % of control | [16] 103 % of control | [17] 114 % of control | [18] 120 % of control

O=C(O)c1cc(C(=O)CCCCC(=O)c2cc(C(=O)O)c(O)c3ccccc23)c2ccccc2c1O
inactive: dose: 50.0 mg/kg/injection, schedule: Q01DX009 (ip), vehicle: saline with Tween-80 90 % of control | dose: 100.0 mg/kg/injection, schedule: Q01DX009 (ip), vehicle: saline with Tween-80 90 % of control | dose: 200.0 mg/kg/injection, schedule: Q01DX009 (ip), vehicle: saline with Tween-80 92 % of control

Oc1ccc(N=Cc2ccc3c(c2)OCO3)cc1
inactive: dose: 12.5 mg/kg/injection, schedule: Q01DX009 (ip), vehicle: other 109 % of control | [14] 111 % of control | [15] 94 % of control | [16] 113 % of control | [17] 111 % of control | [18] 108 % of control

OC(COc1c2ccccc2nc2ccccc12)CN1CCN(c2ccccc2)CC1 (stereo unspecified)
inactive: [11] 94 % of control | [12] 90 % of control

Ic1sc(I)c(I)c1I
inactive: dose: 6.25 mg/kg/injection, schedule: Q01DX001 (ip), vehicle: saline with Tween-80 100 % of control | dose: 12.5 mg/kg/injection, schedule: Q01DX001 (ip), vehicle: saline with Tween-80 100 % of control | dose: 25.0 mg/kg/injection, schedule: Q01DX001 (ip), vehicle: saline with Tween-80 105 % of control

COC(=O)c1cc(NC(=O)NNC(=O)c2ccncc2)cc(C(=O)OC)c1
inactive: dose: 12.5 mg/kg/injection, schedule: Q01DX009 (ip), vehicle: Klucel (hydroxypropylcellulose) (HPC) 100 % of control | dose: 25.0 mg/kg/injection, schedule: Q01DX009 (ip), vehicle: Klucel (hydroxypropylcellulose) (HPC) 98 % of control | [4] 116 % of control and 98 % of control | [5] 90 % of control

[CH3][Sn]([CH3])([N](c1ccccn1)c1ccccn1)[N](c1ccccn1)c1ccccn1
inactive: [1] 111 % of control | [2] 118 % of control

N#CN=C(N)N
inactive: dose: 18.8 mg/kg/injection, schedule: Q01DX005 (ip), vehicle: saline 115 % of control | dose: 37.5 mg/kg/injection, schedule: Q01DX005 (ip), vehicle: saline 112 % of control | dose: 75.0 mg/kg/injection, schedule: Q01DX005 (ip), vehicle: saline 98 % of control | dose: 100.0 mg/kg/injection, schedule: Q01DX005 (ip), vehicle: saline 96 % of control | dose: 150.0 mg/kg/injection, schedule: Q01DX005 (ip), vehicle: saline 105 % of control | dose: 200.0 mg/kg/injection, schedule: Q01DX005 (ip), vehicle: saline 102 % of control | dose: 300.0 mg/kg/injection, schedule: Q01DX005 (ip), vehicle: saline 118 % of control | dose: 400.0 mg/kg/injection, schedule: Q01DX005 (ip), vehicle: saline 99 % of control | dose: 600.0 mg/kg/injection, schedule: Q01DX005 (ip), vehicle: saline 112 % of control | dose: 800.0 mg/kg/injection, schedule: Q01DX005 (ip), vehicle: saline 101 % of control

COc1ccccc1Nc1nc(-c2ccc([N+](=O)[O-])o2)cs1
inactive: [11] 93 % of control | [12] 86 % of control | [13] 88 % of control

CNC(=O)Oc1cccc2c1C(=O)OC2=O
inactive: dose: 100.0 mg/kg/injection, schedule: Q01DX001 (ip), vehicle: saline with Tween-80 100 % of control | dose: 200.0 mg/kg/injection, schedule: Q01DX001 (ip), vehicle: saline with Tween-80 92 % of control | dose: 400.0 mg/kg/injection, schedule: Q01DX001 (ip), vehicle: saline with Tween-80 102 % of control

CCCCCCCCCCCCC(=O)N1CCOCC1
inactive: dose: 100.0 mg/kg/injection, schedule: Q04DX003 (ip), vehicle: saline with Tween-80 100 % of control | dose: 200.0 mg/kg/injection, schedule: Q04DX003 (ip), vehicle: saline with Tween-80 95 % of control | dose: 400.0 mg/kg/injection, schedule: Q04DX003 (ip), vehicle: saline with Tween-80 110 % of control

Cc1ccccc1C(=O)N1C(=O)Cc2ccccc21
inactive: [6] 97 % of control | [7] 91 % of control | dose: 400.0 mg/kg/injection, schedule: Q01DX001 (ip), vehicle: Klucel (hydroxypropylcellulose) (HPC) 90 % of control

CC1CCCC(C2CC3CCCCC3C(N)[N-]2)[N-]1.CC1CCCC(C2CC3CCCCC3C(N)[N-]2)[N-]1.O=[N+]([O-])O.[Cu+] (stereo unspecified)
inactive: dose: 25.0 mg/kg/injection, schedule: Q04DX002 (ip), vehicle: suspension in saline 93 % of control | dose: 50.0 mg/kg/injection, schedule: Q04DX002 (ip), vehicle: suspension in saline 97 % of control | dose: 100.0 mg/kg/injection, schedule: Q04DX002 (ip), vehicle: suspension in saline 99 % of control and 97 % of control | dose: 200.0 mg/kg/injection, schedule: Q04DX002 (ip), vehicle: suspension in saline 96 % of control

Reference: PubChem BioAssay AID330 (DTP/NCI, 2004)
